The values that follow come from ChEMBL document CHEMBL4138094, “Discorhabdin alkaloids from Antarctic Latrunculia spp. sponges as a new class of cholinesterase inhibitors” (Eur J Med Chem, 2017).

In series [1] the target is Acetylcholinesterase (Electrophorus electricus) (UniProt O42275). The experiment in a line: (§1) Inhibition of electric eel AChE using acetylthiocholine iodide as substrate measured over 5 mins by Ellman's method.
In series [2] the target is T1, Acetylcholinesterase (Electrophorus electricus, UniProt O42275). The description is as §1.
Series [3] addresses T2, Acetylcholinesterase (Homo sapiens, UniProt P22303). The series can be described thus: Inhibition of human AChE using acetylthiocholine iodide as substrate measured over 5 mins by Ellman's method.
Series [4] has as its target Cholinesterase (Equus caballus) (UniProt P81908). The experiment in a line: (§2) Reversible competitive inhibition of equine serum BChE using acetylthiocholine iodide as substrate measured over 5 mins by Ellman's method. On the technique in general: Ellman's reagent forms a yellow product with free thiols.
For series [5], the target named is T3, Cholinesterase (Equus caballus, UniProt P81908). Described as §2.
Series [6] has as its target T1, Acetylcholinesterase. The experiment in a line: Reversible competitive inhibition of electric eel AChE using acetylthiocholine iodide as substrate measured over 5 mins by Dixon plot analysis.
The target in series [7] is T2, Acetylcholinesterase. The series can be described thus: Reversible competitive inhibition of human AChE using acetylthiocholine iodide as substrate measured over 5 mins by Dixon plot analysis.
For series [8], the target named is T3, Cholinesterase. The series can be described thus: Inhibition of equine serum BChE using acetylthiocholine iodide as substrate measured over 5 mins by Dixon plot analysis.
For series [9], the target named is Acetylcholinesterase (Electrophorus electricus) (UniProt O42275). The series can be described thus: Inhibition of electric eel AChE using acetylthiocholine iodide as substrate at 8.43 uM measured over 5 mins by Ellman's method relative to control.
Series [10] can be described thus: Toxicity in Balb/c mouse hemidiaphragm assessed as effect on directly evoked muscle twitch amplitudes at 8.43 uM after 60 mins. In kind it is tissue-based, Diaphragm. Particulars: 1 h.
A short description of series [11]: Toxicity in Balb/c mouse hemidiaphragm assessed as effect on indirectly evoked muscle twitch amplitudes at 8.43 uM after 60 mins. The series is classed as tissue-based, Diaphragm. Particulars: 1 h.
Series [12] is described as follows: Toxicity in Balb/c mouse hemidiaphragm assessed as effect on amplitude of endplate potentials after 30 to 60 mins mins in presence of conotoxin GIIIB. In kind it is tissue-based, Diaphragm.
A short description of series [13]: Toxicity in Balb/c mouse hemidiaphragm assessed as effect on endplate potentials half decay after 30 to 60 mins mins in presence of conotoxin GIIIB. The series is classed as tissue-based, Diaphragm.
Series [14] can be described thus: Toxicity in Balb/c mouse hemidiaphragm assessed as effect on amplitude of directly evoked tetanic muscle contractions at 8.43 uM after 60 mins. In kind it is tissue-based, Diaphragm. Particulars: 1 h.
Series [15] in a line: Toxicity in Balb/c mouse hemidiaphragm assessed as effect on amplitude of indirectly evoked tetanic muscle contractions at 8.43 uM after 60 mins. Particulars: 1 h. The series is classed as tissue-based, Diaphragm.
Series [16] addresses Cholinesterase (Equus caballus) (UniProt P81908). To be noted: 1 mM.
Description: Inhibition of equine serum BChE at 1 mM

T1 sequence (O42275 whole entry): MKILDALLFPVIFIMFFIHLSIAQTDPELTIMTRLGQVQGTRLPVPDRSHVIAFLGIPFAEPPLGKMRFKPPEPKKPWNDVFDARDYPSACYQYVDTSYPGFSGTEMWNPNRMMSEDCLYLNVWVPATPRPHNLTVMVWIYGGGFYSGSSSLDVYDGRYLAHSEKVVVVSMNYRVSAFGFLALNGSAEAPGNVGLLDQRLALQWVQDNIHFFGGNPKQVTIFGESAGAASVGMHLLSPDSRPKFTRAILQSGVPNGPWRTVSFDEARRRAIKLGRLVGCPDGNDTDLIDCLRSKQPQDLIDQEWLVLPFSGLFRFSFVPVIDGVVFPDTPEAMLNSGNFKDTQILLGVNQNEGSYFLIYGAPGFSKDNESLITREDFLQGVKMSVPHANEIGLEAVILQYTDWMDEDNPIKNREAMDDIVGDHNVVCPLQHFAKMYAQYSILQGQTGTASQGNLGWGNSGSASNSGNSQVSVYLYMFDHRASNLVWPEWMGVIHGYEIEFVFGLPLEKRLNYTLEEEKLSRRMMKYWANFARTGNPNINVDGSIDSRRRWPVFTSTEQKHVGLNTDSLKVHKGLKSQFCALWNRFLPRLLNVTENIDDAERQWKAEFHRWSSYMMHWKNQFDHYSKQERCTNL
T3 sequence (P81908 whole entry): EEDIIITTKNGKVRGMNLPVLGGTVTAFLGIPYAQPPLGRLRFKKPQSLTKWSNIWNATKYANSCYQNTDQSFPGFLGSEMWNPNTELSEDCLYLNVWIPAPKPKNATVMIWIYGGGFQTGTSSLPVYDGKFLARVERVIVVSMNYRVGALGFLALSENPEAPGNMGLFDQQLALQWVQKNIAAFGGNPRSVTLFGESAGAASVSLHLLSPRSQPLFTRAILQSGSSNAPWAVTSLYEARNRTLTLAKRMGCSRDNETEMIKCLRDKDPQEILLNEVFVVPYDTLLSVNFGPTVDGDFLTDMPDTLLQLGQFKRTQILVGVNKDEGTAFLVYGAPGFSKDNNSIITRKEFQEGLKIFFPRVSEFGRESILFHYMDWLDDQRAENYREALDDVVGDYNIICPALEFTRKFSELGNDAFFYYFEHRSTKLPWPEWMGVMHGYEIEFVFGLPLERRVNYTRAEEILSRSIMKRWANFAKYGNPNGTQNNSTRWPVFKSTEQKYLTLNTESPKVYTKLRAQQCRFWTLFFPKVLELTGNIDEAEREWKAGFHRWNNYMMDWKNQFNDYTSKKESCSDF
Chain of Cholinesterase (Equus caballus) (P81908 whole entry): as above
T2 sequence (P22303 whole entry): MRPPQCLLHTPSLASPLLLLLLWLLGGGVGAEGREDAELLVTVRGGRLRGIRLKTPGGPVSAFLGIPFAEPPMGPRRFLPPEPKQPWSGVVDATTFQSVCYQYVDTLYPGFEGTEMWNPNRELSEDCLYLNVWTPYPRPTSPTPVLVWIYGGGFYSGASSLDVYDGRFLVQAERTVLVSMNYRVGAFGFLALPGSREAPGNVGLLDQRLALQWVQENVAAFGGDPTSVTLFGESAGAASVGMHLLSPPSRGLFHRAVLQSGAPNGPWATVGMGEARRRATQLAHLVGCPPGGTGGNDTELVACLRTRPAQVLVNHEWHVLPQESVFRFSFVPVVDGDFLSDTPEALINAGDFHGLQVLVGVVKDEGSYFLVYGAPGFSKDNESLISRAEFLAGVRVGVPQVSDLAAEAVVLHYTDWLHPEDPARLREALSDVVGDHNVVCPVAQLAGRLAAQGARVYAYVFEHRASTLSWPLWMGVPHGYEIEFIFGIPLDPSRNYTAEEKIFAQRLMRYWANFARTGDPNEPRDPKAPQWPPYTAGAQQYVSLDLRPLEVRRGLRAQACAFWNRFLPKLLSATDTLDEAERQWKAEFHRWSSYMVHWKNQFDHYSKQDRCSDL
Chain of Acetylcholinesterase (Electrophorus electricus) (O42275 24-633 limits assumed): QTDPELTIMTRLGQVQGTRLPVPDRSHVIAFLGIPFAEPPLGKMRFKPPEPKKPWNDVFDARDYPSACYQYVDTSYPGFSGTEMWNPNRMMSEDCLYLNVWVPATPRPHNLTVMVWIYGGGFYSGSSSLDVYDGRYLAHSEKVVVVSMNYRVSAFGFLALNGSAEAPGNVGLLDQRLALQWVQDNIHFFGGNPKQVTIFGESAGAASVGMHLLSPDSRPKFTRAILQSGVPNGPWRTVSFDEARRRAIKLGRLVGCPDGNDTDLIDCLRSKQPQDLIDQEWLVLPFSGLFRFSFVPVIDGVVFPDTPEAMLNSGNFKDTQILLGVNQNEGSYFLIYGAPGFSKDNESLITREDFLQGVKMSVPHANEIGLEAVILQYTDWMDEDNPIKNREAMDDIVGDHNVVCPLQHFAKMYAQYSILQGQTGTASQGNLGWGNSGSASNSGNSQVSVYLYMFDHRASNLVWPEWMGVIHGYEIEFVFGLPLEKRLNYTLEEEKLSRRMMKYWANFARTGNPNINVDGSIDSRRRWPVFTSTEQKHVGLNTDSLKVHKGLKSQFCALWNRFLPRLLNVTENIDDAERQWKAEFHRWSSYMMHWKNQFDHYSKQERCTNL

What is called inhibition is how much of the control response was suppressed. For orientation: IC50 means the concentration that inhibits the measured activity by half. Usually Ki stands for a measure of affinity in units of concentration, obtained from inhibition or displacement. The low end stands for a stronger hold on the target, the high end for a looser hold on the target. As for `O=C1C=C2S[C@H]3C[C@]2(C=C1Br)C1=C(N3)C(=O)c2[nH]cc3c2C1=NCC3` [DISCORHABDIN B], the inhibition entry (in series [1]; at Acetylcholinesterase [3]; in [4]) was “Dose-dependent effect” each time. For the same molecule, the figures for the IC50 on Acetylcholinesterase [2], against Acetylcholinesterase [3] and on Cholinesterase [5] were 5.7 µM, 49.4 µM and 137 µM, respectively. Also, the figures for the Ki on Acetylcholinesterase [6], at Acetylcholinesterase [7] and on Cholinesterase [8] were 1.9 µM, 22.8 µM and 76 µM, respectively.

On to `O=C(O)C(F)(F)F.O=C1CC[C@@]2(C=CNC3=C2C2=NCCc4c[nH]c(c42)C3=O)C=C1Br`, for which the inhibition result was “Dose-dependent effect” in [1], “Dose-dependent effect” on Acetylcholinesterase [3], “Dose-dependent effect” in series [4] and 80% in series [9]. For the same molecule, the IC50 against Acetylcholinesterase [2] was 1.3 µM; on Acetylcholinesterase [3], 116 µM; on Cholinesterase [5], 7 µM. In addition, the Ki came to 1.6 µM at Acetylcholinesterase [6], 56.2 µM at Acetylcholinesterase [7] and 5 µM on Cholinesterase [8]. The Activity result in [10], in series [11], in [12], in series [13], in series [14] and in series [15] was “Non-Toxic” throughout.

As for `O=C1C2=C3C4=[N+](CCc5c[nH]c1c54)[C@@H]1C(=O)C=C4S[C@@H](C[C@@]43[C@H]1O)N2` [DISCORHABDIN L], the inhibition result (in series [1]; at Acetylcholinesterase [3]; in series [4]) was “Dose-dependent effect” each time. Moreover, the IC50 at Acetylcholinesterase [2] turned out to be 25.7 µM; on Acetylcholinesterase [3], 158 µM; at Cholinesterase [5], 531 µM. The same molecule returned a Ki on Acetylcholinesterase [6] of 15 µM.

As for `CNC(=O)Oc1ccc2c(c1)[C@]1(C)CCN[C@@H]1N2`, the figures for the IC50 at Acetylcholinesterase [2], against Acetylcholinesterase [3] and at Cholinesterase [5] were 3 µM, 14.5 µM and 28.5 µM, respectively.

The molecule `COc1ccc2c3c1O[C@H]1C[C@@H](O)C=C[C@@]31CCN(C)C2` registered an inhibition in series [16] of 80.3%.

In the case of `O=C1C2=C(C3=NCCc4c[nH]c1c43)C1(C=CN2)C=C(Br)C(O)C(Br)=C1` (stereo not given), the inhibition result (in series [1]; on Acetylcholinesterase [3]; in series [4]) was “Dose-dependent effect” throughout. Further, the IC50 at Acetylcholinesterase [2] was determined as 14.5 µM; against Acetylcholinesterase [3], 152 µM; on Cholinesterase [5], 15.8 µM. In addition, the Ki on Acetylcholinesterase [6] was found to be 3.5 µM; at Acetylcholinesterase [7], 98 µM; on Cholinesterase [8] it was 17.5 µM.
